A value given as a limit tells only on which side of the number the result lay.

The subject of data set [1] is normal fibroblast cell line, WI-38. Put plainly: MTT cytotoxicity in normal fibroblasts WI-38. Particulars: Homo sapiens, WI-38, read-out: IC50 (µM) WI-38.
Experimental: The MTT assay was performed to evaluate the in vitro antitumor activity of the synthesized 4-anilinoquinazolines according to a previously reported method [59, 60, 61, 62, 63].
The test system of data set [2] is HeLa (cervical epithelioid carcinoma). The experiment in a line: MTT antiproliferative assay, HeLa. Particulars: Homo sapiens, read-out: IC50 (µM) HeLa. In general terms: Tetrazolium assays rely on reduction of a dye to a coloured formazan, in cell work by metabolically active cells.
Text: (§1) The cell lines mentioned above were used to determine the inhibitory effects of the compounds on cell growth using the MTT assay.
The subject of data set [3] is HepG2 (hepatocellular carcinoma). The experiment in a line: MTT antiproliferative assay, HepG2. Particulars: Homo sapiens, HepG2, read-out: IC50 (µM) HepG2.
Text: as §1
Data set [4] concerns MCF7 (mammary gland breast cancer). Put plainly: MTT antiproliferative assay, MCF7. Particulars: Homo sapiens, MCF7, read-out: IC50 (µM) MCF7.
Text: as §1
Data set [5] relates to HCT116 (colorectal carcinoma). The experiment in a line: MTT antiproliferative assay, HCT116. As to conditions: Homo sapiens, HCT-116, read-out: IC50 (µM) HCT116.
Text: as §1
Data set [6] concerns the target T1, CDK9/CycT1 (Homo sapiens, UniProt P50750). Put plainly: In vitro CDK9/cyclin T1 enzyme inhibition assay.
Experimental: (§2) The CDK enzyme assay was performed as previously described [63].
A further data set concerns the target CDK8 (Homo sapiens, UniProt P49336). Put plainly: In vitro CDK8 enzyme inhibition assay.
The target in another data set is CDK7/CycT1 (Homo sapiens, UniProt P50613). Put plainly: In vitro CDK7 enzyme inhibition assay.
Data set [7] addresses T1, CDK9/CycT1. The experiment in a line: Ligand efficiency and ligand lipophilic efficiency (DataWarrior). As to conditions: for LE: LE=−RTlnIC50/N; for LLE: LLE=pIC50−clogP. As to the method:
Ligand efficiency is an important parameter that is widely used in the development of drug measures to quantify the molecular properties, particularly the size and lipophilicity of small molecules, required to gain binding affinity to a drug target. The LE values of the synthesized compounds were measured using DataWarrior employing the following equation [48]: LE=−RTlnIC50/N where R is the universal gas constant, T is the absolute temperature in Kelvin, and N represents the number of heavy atoms, that is, non-hydrogen atoms in the drug.
LE is widely used for the selection and optimization of fragments, hits, and leads. […] Compounds with LE values higher than 0.3 are promising lead compounds.
In drug discovery and development, it is challenging to optimize the compound activity while maintaining a constant lipophilicity. As a result, LLE is an effective approach to control molecule lipophilicity to evade any “molecular obesity” through lead optimization. These were obtained via DataWarrior, according to the following equation [50]: LLE=pIC50−clogP
An acceptable lead compound should have an LLE value ≥5. As depicted in Table 6, 5j has acceptable LLE values. However, other compounds have values below the recommended limit.

Where [8] appears, read: pIC 50, from the CDK9 IC50 of Table 6.
The mark [9] stands for this setting: IC50 (µM) CDK9/CycT1, dose-response curves, repeated in Table 6.

T1 sequence (P50750 whole entry): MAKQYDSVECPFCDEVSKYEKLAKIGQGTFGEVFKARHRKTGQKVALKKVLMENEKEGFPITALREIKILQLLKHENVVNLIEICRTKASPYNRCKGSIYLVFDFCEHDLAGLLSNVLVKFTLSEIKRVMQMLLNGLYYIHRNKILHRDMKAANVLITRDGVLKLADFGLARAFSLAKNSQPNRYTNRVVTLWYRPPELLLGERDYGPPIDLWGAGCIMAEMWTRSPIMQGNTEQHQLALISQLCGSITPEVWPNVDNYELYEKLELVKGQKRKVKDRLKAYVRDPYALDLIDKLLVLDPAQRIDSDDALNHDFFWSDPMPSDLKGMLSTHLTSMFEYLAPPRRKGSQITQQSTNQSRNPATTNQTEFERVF
T1 sequence (O60563 whole entry partner): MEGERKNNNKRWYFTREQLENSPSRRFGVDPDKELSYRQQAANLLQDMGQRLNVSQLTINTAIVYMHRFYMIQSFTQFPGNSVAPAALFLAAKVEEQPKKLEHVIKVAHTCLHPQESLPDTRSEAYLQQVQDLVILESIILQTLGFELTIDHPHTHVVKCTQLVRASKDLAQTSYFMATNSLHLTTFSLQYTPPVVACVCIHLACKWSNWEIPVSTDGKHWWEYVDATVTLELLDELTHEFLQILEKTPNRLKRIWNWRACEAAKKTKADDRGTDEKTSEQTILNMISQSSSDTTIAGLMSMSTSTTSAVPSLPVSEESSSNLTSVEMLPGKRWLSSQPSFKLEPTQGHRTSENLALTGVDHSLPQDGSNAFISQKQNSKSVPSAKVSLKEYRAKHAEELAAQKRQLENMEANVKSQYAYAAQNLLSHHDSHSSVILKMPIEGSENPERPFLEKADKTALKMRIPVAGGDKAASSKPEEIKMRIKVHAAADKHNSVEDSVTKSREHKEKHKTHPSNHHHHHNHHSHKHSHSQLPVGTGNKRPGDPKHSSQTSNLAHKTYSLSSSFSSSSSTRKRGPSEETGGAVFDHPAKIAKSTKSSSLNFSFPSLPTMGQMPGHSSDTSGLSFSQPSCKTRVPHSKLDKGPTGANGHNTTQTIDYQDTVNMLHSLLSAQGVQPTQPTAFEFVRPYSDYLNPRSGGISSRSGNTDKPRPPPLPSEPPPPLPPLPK
Sequence of CDK8 (P49336 whole entry): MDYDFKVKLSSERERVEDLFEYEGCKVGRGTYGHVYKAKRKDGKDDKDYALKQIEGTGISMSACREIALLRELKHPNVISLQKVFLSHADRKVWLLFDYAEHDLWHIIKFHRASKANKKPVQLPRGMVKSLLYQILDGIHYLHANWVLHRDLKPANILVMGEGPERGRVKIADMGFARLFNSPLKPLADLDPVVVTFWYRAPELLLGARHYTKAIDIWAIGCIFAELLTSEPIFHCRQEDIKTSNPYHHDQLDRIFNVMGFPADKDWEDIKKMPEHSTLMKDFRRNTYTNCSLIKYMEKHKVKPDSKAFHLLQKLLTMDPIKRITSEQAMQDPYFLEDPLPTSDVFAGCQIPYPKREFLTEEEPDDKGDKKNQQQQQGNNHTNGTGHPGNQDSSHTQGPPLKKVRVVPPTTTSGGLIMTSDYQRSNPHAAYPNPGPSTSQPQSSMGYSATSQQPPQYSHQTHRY
Sequence of CDK8 (P24863 whole entry partner): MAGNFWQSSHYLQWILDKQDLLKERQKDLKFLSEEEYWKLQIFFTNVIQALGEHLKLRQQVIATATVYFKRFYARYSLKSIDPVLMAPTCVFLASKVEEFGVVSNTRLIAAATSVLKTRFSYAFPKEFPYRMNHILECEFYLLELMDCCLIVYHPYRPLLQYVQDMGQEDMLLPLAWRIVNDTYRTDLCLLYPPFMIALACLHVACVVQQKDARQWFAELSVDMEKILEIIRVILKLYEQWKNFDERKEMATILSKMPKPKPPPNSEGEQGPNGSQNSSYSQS
Sequence of CDK7/CycT1 (P50613 whole entry): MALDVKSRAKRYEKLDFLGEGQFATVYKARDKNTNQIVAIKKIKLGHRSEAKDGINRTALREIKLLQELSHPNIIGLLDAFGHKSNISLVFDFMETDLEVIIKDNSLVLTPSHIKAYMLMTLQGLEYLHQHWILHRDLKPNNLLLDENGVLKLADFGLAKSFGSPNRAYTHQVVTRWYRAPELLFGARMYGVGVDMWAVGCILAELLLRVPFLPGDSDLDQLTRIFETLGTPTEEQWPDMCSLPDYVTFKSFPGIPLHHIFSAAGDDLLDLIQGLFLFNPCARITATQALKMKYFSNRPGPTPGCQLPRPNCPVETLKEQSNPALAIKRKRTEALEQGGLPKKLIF
Sequence of CDK7/CycT1 (P51946 whole entry partner): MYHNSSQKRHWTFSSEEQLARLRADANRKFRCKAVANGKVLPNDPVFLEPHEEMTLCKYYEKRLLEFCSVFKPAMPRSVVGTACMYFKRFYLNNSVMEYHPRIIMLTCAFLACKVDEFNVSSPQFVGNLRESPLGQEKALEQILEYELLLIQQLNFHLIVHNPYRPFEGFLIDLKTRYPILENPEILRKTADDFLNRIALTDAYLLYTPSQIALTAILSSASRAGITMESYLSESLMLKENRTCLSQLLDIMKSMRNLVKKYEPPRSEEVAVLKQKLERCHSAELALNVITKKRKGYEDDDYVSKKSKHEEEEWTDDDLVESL
Experimental for CDK7/CycT1: as §2
Experimental for CDK8: as §2

Broadly, the IC50 is the concentration that inhibits the measured activity by half. On to `Nc1nccc(-c2ccc(Cl)cc2)n1` [Compound 3b, 4-(4-chlorophenyl)pyrimidin-2-amine], for which the half-inhibitory concentration (IC50) in data set [1] was 93.9 ± 5.1 µM; in data set [2], 15.2 ± 1.2 µM; in [3] it was 18.9 ± 1.3 µM; in data set [4], 10.2 ± 0.9 µM; in data set [5] it was 29.1 ± 2 µM.
For `COc1ccc(-c2ccnc(N)n2)cc1` [Compound 3c, 4-(4-methoxyphenyl)pyrimidin-2-amine] the same measures were 58.1 ± 3.6 µM, 86.2 ± 4.3 µM, 74.4 ± 3.7 µM, 62.1 ± 3.6 µM and > 100 µM.
For `Nc1nccc(-c2ccc(C(F)(F)F)cc2)n1` [Compound 3d, 4-(4-(trifluoromethyl)phenyl)pyrimidin-2-amine] the same measures were > 100 µM, > 100 µM, 91.7 ± 4.9 µM, 87.1 ± 4.6 µM and > 100 µM.
For `Nc1nccc(-c2ccc(OC(F)(F)F)cc2)n1` [Compound 3e, 4-(4-(trifluoromethoxy)phenyl)pyrimidin-2-amine] the same measures were 74.6 ± 4.2 µM, 47 ± 2.6 µM, 39.1 ± 2.3 µM, 26.3 ± 1.8 µM and 61.3 ± 3.5 µM.
Consider `N#Cc1cnc(N)nc1-c1ccccc1` [Compound 3f, 2-amino-4-phenylpyrimidine-5-carbonitrile], for which the IC50 in [1] worked out at 55.2 ± 3.2 µM; in data set [2], 18.2 ± 1.4 µM; in data set [3] it was 8.18 ± 0.8 µM; in [4] it was 6.08 ± 0.4 µM; in data set [5], 30.5 ± 2.1 µM.
The corresponding values for `N#Cc1cnc(N)nc1-c1ccc(Cl)cc1` [Compound 3g, 2-amino-4-(4-chlorophenyl)pyrimidine-5-carbonitrile] are 82.7 ± 4.8 µM, 34.7 ± 2.1 µM, 44.2 ± 2.5 µM, 52.9 ± 2.9 µM and 45 ± 2.6 µM.
As usually defined, the melting point is the temperature, or range, at which the solid turns liquid. On to `N#Cc1cnc(N)nc1-c1ccc(F)cc1` [Compound 3h, 2-amino-4-(4-fluorophenyl)pyrimidine-5-carbonitrile], for which the melting point is 214 to 216 °C. For the same compound, in data set [1], the 50% inhibitory concentration (IC50) is > 100 µM. Besides, in data set [2], the IC50 amounted to 82.5 ± 4.1 µM. Besides, in data set [3], the half-inhibitory concentration (IC50) was found to be 67 ± 3.5 µM. Moreover, in data set [4], the concentration for half-maximal inhibition (IC50) came out at 59 ± 3.4 µM. For the same compound, in [5], the IC50 stood at 94.2 ± 5.3 µM.
For the compound `NS(=O)(=O)c1cccc(Nc2nccc(-c3ccc(Cl)cc3)n2)c1` [Compound 5b, 3-((4-(4-Chlorophenyl)pyrimidin-2-yl)amino)benzenesulfonamide], the IC50 was 78.5 ± 4.4 µM in data set [1]; 36.3 ± 2.3 µM in data set [2]; 40.9 ± 2.4 µM in data set [3]; 0.0589 µM on CDK9/CycT1 [6] (setting [8]); 43.7 ± 2.5 µM in data set [4]; 3.81 µM against CDK8. The IC50 is 53.8 ± 2.9 µM in data set [5] and 3.01 µM at CDK7/CycT1. This compound also displayed an LE at CDK9/CycT1 [7] of 0.3683. On CDK9/CycT1 [7], this compound showed an LLE of 3.3262.
As to `COc1ccc(-c2ccnc(Nc3cccc(S(N)(=O)=O)c3)n2)cc1` [Compound 5c, 3-((4-(4-Methoxyphenyl)pyrimidin-2-yl)amino)benzenesulfonamide], the 50% inhibitory concentration (IC50) in [1] is 56.3 ± 3.4 µM; in data set [2], 29.8 ± 2.1 µM; in data set [3], 24.4 ± 1.8 µM; against CDK9/CycT1 [6] (setting [8]), 0.246 µM; in [4] it was 16.1 ± 1.3 µM; on CDK8, 6.3 µM. The IC50 was found to be 38.1 ± 2.4 µM in [5] and 0.966 µM against CDK7/CycT1. Further, at CDK9/CycT1 [7], the LE is recorded as 0.3538. The compound also had an LLE on CDK9/CycT1 [7] of 4.0076.
For the compound `NS(=O)(=O)c1cccc(Nc2nccc(-c3ccc(OC(F)(F)F)cc3)n2)c1` [Compound 5e, 3-((4-(4-(Trifluoromethoxy)phenyl)pyrimidin-2-yl)amino)benzenesulfonamide], the melting point was in the range of 252 to 254 °C. In addition, the IC50 in data set [1] came to 64.3 ± 3.9 µM. Moreover, in data set [2], the IC50 was determined as 38.8 ± 2.5 µM. In addition, the IC50 in data set [3] came to 81.3 ± 4.1 µM. In addition, the 50% inhibitory concentration (IC50) at CDK9/CycT1 [6] (setting [8]) is 0.149 µM. Moreover, in data set [4], the 50% inhibitory concentration (IC50) worked out at 74 ± 4.2 µM. In addition, the 50% inhibitory concentration (IC50) at CDK8 worked out at 1.89 µM. In addition, the 50% inhibitory concentration (IC50) in data set [5] was 56.6 ± 3.1 µM. In addition, the midpoint of inhibition against CDK7/CycT1, the IC50, lay at 1.1 µM. On CDK9/CycT1 [7], the LE turned out to be 0.3129 and the LLE is 2.7773.
For the compound `NS(=O)(=O)c1cccc(Nc2nccc(-c3ccc(F)cc3)n2)c1` [Compound 5f, 3-((4-(4-Fluorophenyl)pyrimidin-2-yl)amino)benzenesulfonamide], the IC50 in data set [1] was 26.9 ± 2 µM; in data set [2] it was 51.4 ± 2.8 µM; in data set [3] it was 46.8 ± 2.6 µM; against CDK9/CycT1 [6] (setting [8]) it was 0.2 µM; in data set [4] it was 57.2 ± 3.2 µM; on CDK8, 1.53 µM. The concentration for half-maximal inhibition (IC50) in data set [5] was determined as 65.9 ± 3.7 µM; on CDK7/CycT1, 0.479 µM. Further, the LE at CDK9/CycT1 [7] turned out to be 0.3694. The compound also gave an LLE on CDK9/CycT1 [7] of 3.8517.
The compound `NS(=O)(=O)c1cccc(Nc2nccc(-c3ccc([N+](=O)[O-])cc3)n2)c1` [Compound 5g, 3-((4-(4-Nitrophenyl)pyrimidin-2-yl)amino)benzenesulfonamide] registered a melting point of 265 to 267 °C. Also, the IC50 in data set [1] worked out at 31.1 ± 2.3 µM. For the same compound, the IC50 in [2] amounted to 42.6 ± 2.4 µM. Moreover, the IC50 in data set [3] came to 84.6 ± 4.3 µM. Besides, the IC50 against CDK9/CycT1 [6] (setting [9]) stood at 1.74 µM. The half-inhibitory concentration (IC50) in [4] was 68.2 ± 3.9 µM. On CDK8, this compound came in with a half-maximal inhibitory concentration (IC50) of 4.19 µM. For the same compound, the IC50 in [5] was 57.5 ± 3.4 µM. The same compound had a 50% inhibitory concentration (IC50) against CDK7/CycT1 of 1.34 µM. On CDK9/CycT1 [7], this compound showed an LE of 0.3393 and an LLE of 4.8413.
Take `NS(=O)(=O)c1cccc(Nc2nccc(-c3ccccn3)n2)c1` [Compound 5h, 3-((4-(Pyridin-2-yl)pyrimidin-2-yl)amino)benzenesulfonamide]: the IC50 in data set [1] was > 100 µM; in data set [2] it was 25.4 ± 1.9 µM; in [3], 28 ± 2.1 µM; against CDK9/CycT1 [6] (setting [8]), 0.191 µM; in data set [4], 14.3 ± 1.2 µM; on CDK8, 6.56 µM. Also, the IC50 in data set [5] was 35.1 ± 2.3 µM; against CDK7/CycT1, 3.18 µM. For the same compound, the LE at CDK9/CycT1 [7] came to 0.3868. This compound also had an LLE at CDK9/CycT1 [7] of 4.8844.
For `NS(=O)(=O)c1cccc(Nc2nccc(-c3ccncc3)n2)c1` [Compound 5i, 3-((4-(Pyridin-4-yl)pyrimidin-2-yl)amino)benzenesulfonamide], the concentration for half-maximal inhibition (IC50) is 19.7 ± 1.3 µM in [1]; 63.7 ± 3.2 µM in data set [2]; 52.6 ± 2.9 µM in data set [3]; 1.67 µM against CDK9/CycT1 [6] (setting [9]); 1.67 µM on CDK9/CycT1 [6] (setting [8]); 32.2 ± 2.1 µM in [4]. Further, the half-inhibitory concentration (IC50) was determined as 4.37 µM at CDK8, 72.2 ± 4 µM in [5] and 4.33 µM at CDK7/CycT1. Besides, at CDK9/CycT1 [7], the LE came to 0.3868. Further, the LLE at CDK9/CycT1 [7] was 4.9754.
For the compound `N#Cc1cnc(Nc2cccc(S(N)(=O)=O)c2)nc1-c1ccc(Cl)cc1` [Compound 5k, 3-((4-(4-Chlorophenyl)-5-cyanopyrimidin-2-yl)amino)benzenesulfonamide], the IC50 in data set [1] stood at 27.1 ± 2.2 µM; in [2], 66.2 ± 3.4 µM; in [3], 48.6 ± 2.7 µM; against CDK9/CycT1 [6] (setting [9]), 0.613 µM; in data set [4] it was 39.5 ± 2.3 µM; at CDK8, 3.66 µM. The IC50 in data set [5] stood at 75.3 ± 4.3 µM; on CDK7/CycT1, 1.73 µM. For the same compound, at CDK9/CycT1 [7], the LE stood at 0.3384. The same compound had an LLE on CDK9/CycT1 [7] of 3.4615.
With `N#Cc1cnc(Nc2cccc(S(N)(=O)=O)c2)nc1-c1ccc(F)cc1` [Compound 5l, 3-((5-Cyano-4-(4-fluorophenyl)pyrimidin-2-yl)amino)benzenesulfonamide], the IC50 in data set [1] stood at 39.3 ± 2.7 µM; in [2], 74.9 ± 3.7 µM; in data set [3], 56.2 ± 3.2 µM; against CDK9/CycT1 [6] (setting [9]), 0.967 µM; in [4], 46 ± 2.6 µM; against CDK8, 1.65 µM. The IC50 in data set [5] was 83.7 ± 4.6 µM; against CDK7/CycT1, 1.92 µM. At CDK9/CycT1 [7], this compound registered an LE of 0.3394. For the same compound, the LLE at CDK9/CycT1 [7] was 3.9856.
For `N#Cc1cnc(Nc2ccccc2)nc1-c1ccccc1` [Compound 5m, 4-Phenyl-2-(phenylamino)pyrimidine-5-carbonitrile], the IC50 worked out at 73.3 ± 4.1 µM in [1]; 9.83 ± 0.7 µM in data set [2]; 88.4 ± 4.6 µM in [3]; 1.96 µM against CDK9/CycT1 [6] (setting [9]); 76.3 ± 4.3 µM in data set [4]; 1.43 µM against CDK8. In addition, the IC50 in data set [5] is 23.6 ± 1.5 µM; at CDK7/CycT1, 0.703 µM. This compound also came in with an LE on CDK9/CycT1 [7] of 0.4289. On CDK9/CycT1 [7], this compound had an LLE of 2.9828.
For the compound `COc1cccc2c1C(=O)c1c(O)c3c(c(O)c1C2=O)C[C@@](O)(C(=O)CO)C[C@@H]3O[C@H]1C[C@H](N)[C@H](O)[C@H](C)O1` [DOX, Doxorubicin, reference compound], the IC50 in data set [3] was found to be 4.5 ± 0.2 µM.
